Experimental data taken from patent publication US4244883A, “2a,2b-Dihomo-15-alkyl-PGF2β compounds” (The Upjohn Company, priority 1979, dated 1981).

Experiments:
gastric lesions = assay: Cytoprotective effects: inhibition of ethanol-induced gastric lesions (ulcers) in female rats; format: in vivo, rat; settings: 2 mg/kg oral; for inhibition at 2 mg/kg: Rattus norvegicus, female rats 205-220 g, 30 min before 1 ml ethanol (80%) orally, examined 1 h after ethanol, read-out: % Inhibition (percent reduction in the number of gastric lesions in the treated group as compared to the control group); for cytoprotective effect (in words): female rats, 80% ethanol-induced gastric lesions
Procedure: Female rats of 205-220 g are deprived of food during the morning. At 1500 hrs, water is removed and the animals are placed in individual cages which prevent them from consuming hair or feces. The following morning, the prostaglandin analogs are administered orally at a fixed dose of 2 mg/kg in 1 ml of water containing 5% ethanol and 1% emulphor. Emulphor EL-620 is used. Thirty minutes later, 1 ml of ethanol (80%) is given orally to induce gastric lesions. One hour after ethanol administration, the animals are sacrificed with carbon dioxide, their stomachs disected out and opened along the greater curvature. Visual examination with a binocular magnifier is undertaken to determine the presence of necrotic ulcerations. The average number of ulcers per stomach is recorded. The control group of rats receiving only vehicle (ethanol 5%, emulphor 1% in water) prior to the administration of 80% ethanol is employed. From the number of ulcerations in control group animals, a percent inhibition is determined which is the percent reduction in the number of gastric lesions in the treated group as compared to the control group.
Following the procedure of Example 1, 2a,2b-dihomo-15-epi-PGF2β, methyl ester is compared for gastrointestinal cytoprotective activity with 2a,2b-dihomo-15-epi-15-methyl-PGF2β, methyl ester.

intestinal lesions = settings: rat; pre-treatment; Robert, et al., Gastroenterology 69:1045 (1974); cited from earlier work

SMILES: CCCCC[C@@](C)(O)/C=C/[C@@H]1[C@@H](C/C=C\CCCCCC(=O)OC)[C@H](O)C[C@H]1O [2a,2b-dihomo-15-epi-15-methyl-PGF2β, methyl ester]
- inhibition at 2 mg/kg (gastric lesions): 100%
- cytoprotective effect (in words) (gastric lesions): totally cytoprotective

SMILES: CCCCC[C@@H](O)/C=C/[C@@H]1[C@@H](C/C=C\CCCCCC(=O)OC)[C@H](O)C[C@H]1O [2a,2b-dihomo-15-epi-PGF2β, methyl ester]
- inhibition at 2 mg/kg (gastric lesions): 2%
- cytoprotective effect (in words) (gastric lesions): negligable cytoprotective effects

SMILES: CCCCC[C@](C)(O)/C=C/[C@@H]1[C@@H](C/C=C\CCCCCC(=O)OC)[C@H](O)C[C@H]1O [2a,2b-dihomo-15-methyl-PGF2β, methyl ester]
- inhibition at 2 mg/kg (gastric lesions): 96%
- cytoprotective effect (in words) (gastric lesions): virtually totally cytoprotective

SMILES: CCCCC[C@H](O)/C=C/[C@@H]1[C@@H](C/C=C\CCCCCC(=O)OC)[C@H](O)C[C@H]1O [2a,2b-dihomo-PGF2β, methyl ester]
- inhibition at 2 mg/kg (gastric lesions): 32%
- cytoprotective effect (in words) (gastric lesions): only modest cytoprotective effects

SMILES: CCCCC[C@H](O)/C=C/[C@H]1[C@H](O)CC(=O)[C@@H]1C/C=C\CCCC(=O)O [PGE2]
- effect on indomethacin-induced intestinal lesions (in words) (intestinal lesions): effective in reducing indomethacin-inducedintestinal lesions
